Here are results for seven molecules from patent US7700786B2, “Pyrazole derivative, intermediate therefor, processes for producing these, and herbicide containing these as active ingredient” (Sagami Chemical Research Center, priority 2001, dated 2010).

In series [1] the test system is Eleocharis acicularis. As to the kind of experiment: Herbicidal efficacy test by pre-emergence treatment under submergence condition. The series is classed as in vivo. As to conditions: 15th day after treatment, ratings of 1 to 5.
Series [2] relates to Monochoria vaginalis. The description is as above. The class given is in vivo. As to conditions: 15th day after treatment, ratings of 1 to 5.
Source text: (§3) A 1/10,000-are pot was filled with paddy field soil, and, after plowing, seeds of Echinochloa oryzicola, Cyperus difformis, Monochoria vaginalis, Scirpus juncoides, Eleocharis acicularis and other annual broadleaf weeds such as Lindernia procumbens, Rotala indica and Elatine triandra were sown. Rice (oryza sativa) seedlings (cultiver “Koshihikari”) at a 2.5-leaf stage were transplanted and kept under a submergence condition. After one day, the wettable powder or emulsifiable concentrate of the compound of the present invention, prepared according to Preparation Example, was diluted and dropped on a water surface at a predetermined dose.
Series [3] deals with Rice (oryza sativa) seedlings (cultiver Koshihikari). As to conditions: in vivo.
Source text: as §3
Series [4] deals with annual broadleaf weeds such as Lindernia procumbens, Rotala indica and Elatine triandra. As to the kind of experiment: Herbicidal efficacy test by pre-emergence treatment under submergence condition. The series is classed as in vivo. Particulars: 15th day after treatment, ratings of 1 to 5.
Source text: as §3
The subject of series [5] is Cyperus difformis. Described as above. The series is classed as in vivo. As to conditions: 15th day after treatment, ratings of 1 to 5.
Source text: as §3
Series [6] concerns Scirpus juncoides. The description is as above. The series is classed as in vivo. Particulars: 15th day after treatment, ratings of 1 to 5.
Source text: as §3
Series [7] deals with Echinochloa oryzicola. Described as above. As to conditions: 15th day after treatment, ratings of 1 to 5. The series is classed as in vivo.
For series [8], the system named is Amaranthus viridis. As to the kind of experiment: Herbicidal efficacy test by foliar treatment after germination under upland field condition. The class given is in vivo. As to conditions: dose 1 kg/ha, rated 1 to 5 on the 14th day after treatment. From the text: (§1) A vat having an area of 5×10 cm^2 and a depth of 5 cm was filled with upland field soil, and seeds of Chenopodium album, Echinochloa crus-galli, Amaranthus viridis and Abutilon theophrasti were sown thereon and covered with soil by a depth of 0.5 cm. Water was sprayed as required to grow them for 14 days.

In series [9] the test system is Chenopodium album. Described as above. As to conditions: dose 1 kg/ha, rated 1 to 5 on the 14th day after treatment. The class given is in vivo.
Source text: as §1

In series [10] the test system is Echinochloa crus-galli. The description is as above. The class given is in vivo. Particulars: dose 1 kg/ha, rated 1 to 5 on the 14th day after treatment.
Source text: as §1

Series [11] has as its system Abutilon theophrasti. The description is as above. The class given is in vivo. Particulars: Dc: Digitaria ciliaris (table footnote; method names Abutilon theophrasti), dose 1 kg/ha, rated 1 to 5 on the 14th day after treatment.
The test system of series [12] is Amaranthus viridis. As to the kind of experiment: Herbicidal efficacy test by soil treatment before germination under upland field condition. The class given is in vivo. As to conditions: dose 1 kg/ha; 21st day after treatment; ratings of 1 to 5. From the text:
(§2) A vat having an area of 5×10 cm^2 and a depth of 5 cm was filled with upland field soil, and seeds of Chenopodium album, Echinochloa crus-galli, Amaranthus viridis, Digitaria ciliaris and sweet corn (Zea mays) were sown thereon and covered with soil by a depth of 0.5 cm.

Series [13] has as its system Digitaria ciliaris. The description is as above. The series is classed as in vivo. As to conditions: dose 1 kg/ha; 21st day after treatment; ratings of 1 to 5.
Source text: as §2

Series [14] has as its system Chenopodium album. Described as above. The class given is in vivo. As to conditions: dose 1 kg/ha; 21st day after treatment; ratings of 1 to 5.
Source text: as §2

In series [15] the test system is Echinochloa crus-galli. The description is as above. The class given is in vivo. Particulars: dose 1 kg/ha; 21st day after treatment; ratings of 1 to 5.
Source text: as §2

In series [16] the test system is sweet corn (Zea mays). The experiment in a line: Injury to corn, soil treatment before germination under upland field condition. The class given is in vivo. As to conditions: dose 1 kg/ha; 21st day after treatment; ratings of 1 to 5.
Source text: as §2
Wherever Herbicidal activity Av is given: key: 1 shows no influence; 5 shows complete die.
Wherever Herbicidal activity Ca is given: key: 1 shows no influence; 5 shows complete die.
Wherever Herbicidal efficacy Cd is given: key: 1 shows no influence; 5 shows complete die.
Wherever Herbicidal efficacy Ea is given: key: 1 shows no influence; 5 shows complete die.
Wherever Herbicidal efficacy Mv is given: key: 1 shows no influence; 5 shows complete die.

Regarding `Cc1cc(Oc2c(Cl)cc(C(F)(F)F)cc2Cl)nn1C(=O)NCCBr` [Compound 3-146], the “Herbicidal efficacy Ea” value in series [1] (dose 0.5 kg/ha) and in series [1] (dose 1 kg/ha) was 5 throughout. The “Herbicidal efficacy Mv” value in series [2] (dose 0.5 kg/ha) and in series [2] (dose 1 kg/ha) was 5 throughout. For the same molecule, the “Injury Os” value in series [3] was 1. Besides, the “Herbicidal efficacy Blw” value in series [4] (dose 0.5 kg/ha) and in [4] (dose 1 kg/ha) was 5 throughout. Moreover, the “Herbicidal efficacy Cd” value in series [5] (dose 0.5 kg/ha) and in [5] (dose 1 kg/ha) was 5 in each case. Besides, the “Herbicidal efficacy Sj” value in [6] (dose 0.5 kg/ha) and in series [6] (dose 1 kg/ha) was 5 in each case. Also, the “Herbicidal efficacy Eo” value in series [7] (dose 0.5 kg/ha) and in [7] (dose 1 kg/ha) was 5 in each case.

As for `COCNC(=S)n1nc(Oc2c(Cl)cc(C(F)(F)F)cc2Cl)cc1C` [Compound 3-169], the “Herbicidal efficacy Ea” value in [1] (dose 0.5 kg/ha) and in series [1] (dose 1 kg/ha) was 5 throughout. The “Herbicidal efficacy Mv” value in series [2] (dose 0.5 kg/ha) and in series [2] (dose 1 kg/ha) was 5 throughout. In addition, the “Injury Os” value in series [3] worked out at 1. Also, the “Herbicidal efficacy Blw” value in series [4] (dose 0.5 kg/ha) and in series [4] (dose 1 kg/ha) was 5 each time. Besides, the “Herbicidal efficacy Cd” value in [5] (dose 0.5 kg/ha) and in [5] (dose 1 kg/ha) was 5 throughout. Besides, the “Herbicidal efficacy Sj” value is 4 in [6] (dose 0.5 kg/ha) and 4.2 in series [6] (dose 1 kg/ha). In addition, the “Herbicidal efficacy Eo” value in [7] (dose 0.5 kg/ha) and in [7] (dose 1 kg/ha) was 5 throughout.

With `CCCNC(=O)n1nc(Oc2c(Cl)cc(C(F)(F)F)cc2Cl)cc1C` [Compound 3-74], the “Herbicidal activity Av” value in series [8] and in series [12] was 5 each time. Moreover, the “Herbicidal activity Ca” value in series [9] and in series [14] was 5 each time. Besides, the “Herbicidal activity Ec” value in series [10] and in series [15] was 4.9 each time. For the same molecule, the “Herbicidal efficacy Ea” value in [1] (dose 0.5 kg/ha) and in series [1] (dose 1 kg/ha) was 5 each time. Moreover, the “Herbicidal efficacy Mv” value in series [2] (dose 0.5 kg/ha) and in series [2] (dose 1 kg/ha) was 5 each time. For the same molecule, in series [3], the “Injury Os” value is reported as 1.8. The “Herbicidal efficacy Blw” value in series [4] (dose 0.5 kg/ha) and in series [4] (dose 1 kg/ha) was 5 each time. The “Herbicidal efficacy Cd” value in series [5] (dose 0.5 kg/ha) and in series [5] (dose 1 kg/ha) was 5 in each case. Moreover, the “Herbicidal activity Dc” value in series [11] and in [13] was 5 each time. Further, the “Herbicidal efficacy Sj” value in series [6] (dose 0.5 kg/ha) and in series [6] (dose 1 kg/ha) was 5 throughout. Further, the “Herbicidal efficacy Eo” value in series [7] (dose 0.5 kg/ha) and in [7] (dose 1 kg/ha) was 5 each time. For the same molecule, the “Injury Zm” value in [16] was found to be 1.

For the molecule `CNC(=O)n1nc(Oc2c(Cl)cc(C(F)(F)F)cc2Cl)c(Cl)c1C` [Compound 3-249], the “Herbicidal activity Av” value in series [8] and in series [12] was 5 throughout. The “Herbicidal activity Ca” value in series [9] and in [14] was 5 each time. For the same molecule, the “Herbicidal activity Ec” value in series [10] is recorded as 5; in series [15], 4.5. For the same molecule, the “Herbicidal efficacy Ea” value in [1] (dose 0.5 kg/ha) and in series [1] (dose 1 kg/ha) was 5 throughout. For the same molecule, the “Herbicidal efficacy Mv” value in series [2] (dose 0.5 kg/ha) and in series [2] (dose 1 kg/ha) was 5 throughout. The “Herbicidal efficacy Blw” value in [4] (dose 0.5 kg/ha) and in [4] (dose 1 kg/ha) was 5 in each case. Moreover, the “Herbicidal efficacy Cd” value in series [5] (dose 0.5 kg/ha) and in [5] (dose 1 kg/ha) was 5 in each case. Also, the “Herbicidal activity Dc” value in series [11] and in [13] was 5 throughout. Also, the “Herbicidal efficacy Sj” value in [6] (dose 0.5 kg/ha) and in [6] (dose 1 kg/ha) was 5 each time. For the same molecule, the “Herbicidal efficacy Eo” value in series [7] (dose 0.5 kg/ha) and in [7] (dose 1 kg/ha) was 5 in each case. In addition, the “Injury Zm” value in series [16] is given as 1.2.

Turning to `CCNC(=O)n1nc(Oc2c(Cl)cc(C(F)(F)F)cc2Cl)c(Cl)c1C` [Compound 3-253], the “Herbicidal activity Av” value in series [8] and in [12] was 5 in each case. Further, the “Herbicidal activity Ca” value in series [9] and in series [14] was 5 throughout. Besides, the results for the “Herbicidal activity Ec” value in series [10] and in series [15] were 5 and 4, respectively. Besides, the “Herbicidal efficacy Ea” value in [1] (dose 0.5 kg/ha) and in series [1] (dose 1 kg/ha) was 5 in each case. Also, the “Herbicidal efficacy Mv” value in [2] (dose 0.5 kg/ha) and in series [2] (dose 1 kg/ha) was 5 in each case. Moreover, the “Herbicidal efficacy Blw” value in series [4] (dose 0.5 kg/ha) and in series [4] (dose 1 kg/ha) was 5 each time. For the same molecule, the “Herbicidal efficacy Cd” value in series [5] (dose 0.5 kg/ha) and in [5] (dose 1 kg/ha) was 5 each time. Besides, the “Herbicidal activity Dc” value in series [11] and in series [13] was 5 in each case. The “Herbicidal efficacy Sj” value in series [6] (dose 0.5 kg/ha) and in [6] (dose 1 kg/ha) was 5 throughout. For the same molecule, the “Herbicidal efficacy Eo” value in [7] (dose 0.5 kg/ha) and in series [7] (dose 1 kg/ha) was 5 each time. For the same molecule, the “Injury Zm” value in series [16] turned out to be 1.5.

Regarding `CCNC(=O)n1nc(Oc2c(Cl)cc(C(F)(F)F)cc2Cl)cc1CC` [Compound 3-330], the “Herbicidal activity Av” value in series [8] and in series [12] was 5 each time. For the same molecule, the “Herbicidal activity Ca” value in [9] and in [14] was 5 throughout. The “Herbicidal activity Ec” value came to 5 in series [10] and 3.5 in series [15]. The “Herbicidal efficacy Ea” value in series [1] (dose 0.5 kg/ha) and in series [1] (dose 1 kg/ha) was 5 each time. Also, the “Herbicidal efficacy Mv” value in series [2] (dose 0.5 kg/ha) and in [2] (dose 1 kg/ha) was 5 each time. The “Herbicidal efficacy Blw” value in [4] (dose 0.5 kg/ha) and in series [4] (dose 1 kg/ha) was 5 each time. Besides, the “Herbicidal efficacy Cd” value in series [5] (dose 0.5 kg/ha) and in series [5] (dose 1 kg/ha) was 5 each time. In addition, the “Herbicidal activity Dc” value in series [11] and in series [13] was 5 each time. In addition, the “Herbicidal efficacy Sj” value in series [6] (dose 0.5 kg/ha) and in series [6] (dose 1 kg/ha) was 5 throughout. The “Herbicidal efficacy Eo” value in series [7] (dose 0.5 kg/ha) and in series [7] (dose 1 kg/ha) was 5 throughout. For the same molecule, the “Injury Zm” value in [16] is given as 1.5.

Regarding `CCNC(=S)n1nc(Oc2c(Cl)cc(C(F)(F)F)cc2Cl)cc1C` [Compound 3-45], the “Herbicidal activity Av” value in [8] and in series [12] was 5 throughout. In addition, the “Herbicidal activity Ca” value in [9] and in series [14] was 5 throughout. In addition, the “Herbicidal activity Ec” value in [10] and in series [15] was 5 each time. In addition, the “Herbicidal efficacy Ea” value in [1] (dose 0.5 kg/ha) and in series [1] (dose 1 kg/ha) was 5 each time. The “Herbicidal efficacy Mv” value in series [2] (dose 0.5 kg/ha) and in series [2] (dose 1 kg/ha) was 5 each time. Moreover, the “Herbicidal efficacy Blw” value in series [4] (dose 0.5 kg/ha) and in [4] (dose 1 kg/ha) was 5 throughout. In addition, the “Herbicidal efficacy Cd” value in series [5] (dose 0.5 kg/ha) and in [5] (dose 1 kg/ha) was 5 in each case. Moreover, the “Herbicidal activity Dc” value in series [11] and in series [13] was 5 each time. The “Herbicidal efficacy Sj” value was 4 in series [6] (dose 0.5 kg/ha) and 5 in [6] (dose 1 kg/ha). Further, the “Herbicidal efficacy Eo” value in [7] (dose 0.5 kg/ha) and in series [7] (dose 1 kg/ha) was 5 each time. Besides, the “Injury Zm” value in series [16] is recorded as 2.
